Here are results for three substances from patent US11970708B2, “Gene therapy vector with minimizing recombination, recombinant retrovirus comprising the vector, and pharmaceutical composition for preventing or treating cancer comprising the recombinant retrovirus” (ARTICURE INC., priority 2020, dated 2024).

Data set [1] relates to U87MG cells. In words: Western blotting of thymidine kinase (TK) and yeast cytosine deaminase (yCD) protein in infected cells. In kind it is cell-based, human. The procedure: After 3 days of initial infection, p1(passage 1)˜p10 cells were harvested and resuspended in 100 ? of T-PER tissue extraction agent (PIERCE, 78510)+1× proteinase inhibitor. Thereafter, the cells were broken by freezing-thawing three times, and the cytoplasmic supernatant was recovered by centrifugation at 13,000 rpm for 10 minutes. After quantifying the protein amount using BCA, 20 μg of cell lysate was taken and mixed with SDS sample loading dye to 1%. After reacting for 5 minutes in a 100° C. heat block, the reaction mixture was moved to ice and reacted for 2 minutes. Then, the reactant was loaded on 10% (TK) or 13.5% (yCD) SDS-PAGE gel, followed by electrophoresis. Upon completion of the electrophoresis, the protein was transferred to a NC (nitrocellulose) membrane at 90 V for 2 hours, and then put into a blocking solution (5% skim milk in 1X TBS-T), followed by reaction at room temperature for 1 hour. […] Then, the membrane was washed 4 times with 1× TBS-T at room temperature for 10 minutes, reacted in an ECL (enhanced chemiluminescence, Bio-rad Cat No. 170-5062) solution, and then analyzed in a chemiluminescence imaging system (ChemiDoc, Biorad CA). […]

The test system of data set [2] is U-87MG cells. In words: Cell death of virus-infected cells upon prodrug (GCV, 5-FC) treatment, optical microscope. Particulars: MuLV env-based vectors, FIG. 16. More on the design: species or system human.
Data set [3] concerns U-87MG cells. Described as above. Also noted: species or system human. Particulars: GaLV env-based vectors; prodrugs GCV 30 μg/ and 1 mM 5-FC; FIG. 12. The procedure: Specifically, the spRRVe-TK/sRRVgp-sEF1α-hopt-yCD virus was co-transfected into the 293T cell line using PLUS reagent (Invitrogen) and lipofectamine (Invitrogen). After 2 days, the supernatant of the virus was recovered, and U-87MG cells passaged in a 6-well plate at the density of 1.5×10^5 cells/well the previous day were infected with the virus and polybran at a concentration of 8 μg/ ? for 8 hours. Five days after infection (postinfection 5d), the cell supernatant was taken and re-infected to U-87MG cells passaged in a 6-well plate at the density of 1.5×10^5 cells/well the previous day (p1), and then sequentially infected up to p4 in the same way. Cells at each stage of infection were treated with trypsin-EDTA to make single cells, and passaged in a 12-well plate at the density of 1.5×10^5 cells/well, and from the next day after the passage, 30 μg/ ? of GCV and 1 mM 5-FC were treated for […], respectively, to confirm cell death.
Specifically, the virus containing spRRVe-F4-hopt-yCD/sRRVgp-TK, spRRVe-F4-hopt-yCD/sRRVgp-F1-TK, spRRVe-F4-hopt-yCD/sRRVgp-F2-TK, spRRVe-F4-hopt-yCD/sRRVgp-F3-TK and spRRVe-F4-hopt-yCD/sRRVgp-F4-TK was co-transfected into the 293T cell line using PLUS reagent (Invitrogen) and lipofectamine (Invitrogen). […]

The subject of data set [4] is brain tumor cell line U87MG. In words: Recombination type analysis by genomic DNA PCR after serial virus infection (passages). In kind it is cell-based, human. Particulars: spRRVe-yCD/sRRVgp-TK virus. The protocol:
After 3 days of initial infection, the cultured supernatant was taken and re-infected to new U87MG, and the infected U87MG cell line was recovered and genomic DNA was isolated.
The replicating-retrovirus vector for gene therapy is highly likely to cause recombination because the size of genomic RNA is increased by the introduced foreign gene and non-homologous sequences are added. Therefore, in order to construct an efficient and stable replicating-retrovirus vector for gene therapy, it is very important to confirm the presence and degree of recombination at the development stage.
Specifically, polymerase chain reaction was performed using the primers listed in Table 1 below capable of specifically amplifying the env vector. […] 100 ng of genomic DNA, 1X reaction buffer, 0.25 mM dNTP, 0.2 pmol forward primer, 0.2 pmol reverse primer, and 0.2 unit Taq polymerase were added to a PCR reaction tube, and sterilized distilled water was added to make the final volume of 20 ? . Then, After PCR was performed under the conditions shown in Table 1 below, the amplified DNA was loaded on a 1% agarose gel to confirm the PCR amplification product, thereby confirming the infectivity of the virus and whether the recombination occurred. […]

Take “sRRVe-TK: MuLV env vector, 646 bp MCMV promoter, TK gene (SEQ. ID. NO: 33)”: the “thymidine kinase (TK) protein expression” value in data set [1] (MuLV env-based vectors, FIG. 15) is on record as “continuously expressed”. Further, the “cell death upon prodrug treatment” value in data set [2] is reported as “cell death is induced”.
On to “spRRVe-TK: GaLV env vector, 646 bp MCMV promoter, TK gene (SEQ. ID. NO: 27)”, for which the “cell death upon prodrug treatment” value in data set [3] is listed as “cell death is induced”. In addition, the “thymidine kinase (TK) protein expression” value in data set [1] (GaLV env-based vectors with sRRVgp-sEF1α-hopt-yCD, 0.1 MOI, p1-p10, FIG. 10) is given as “continuously expressed”.
“spRRVe-yCD: GaLV env vector with full-length MCMV promoter and yCD gene (SEQ. ID. NO: 25)”: in data set [4] (day 3 of initial infection and passages 1 to 3), the “virus proliferation and infection (PCR products detected)” value is “virus proliferation and infection progressed”. Also, the “passage from which PCR products smaller than the expected amplification product were detected (recombination)” value in data set [4] (full-length MCMV promoter, 2E7 gc, GaLV 1624F/MFGSacIR primers, up to passage 3) is listed as 2 passage.
